Source: patent publication EP2873675A1, “Peptide-based peroxidase inhibitors and methods of using same” (The Medical College of Wisconsin, Inc., priority 2013, dated 2015)
Entries after “also recorded” stand apart in the source; their conditions may differ. Residues, ends and D or L forms follow the SMILES beside them.

Tests used:
MPO [1] = test: MPO-mediated LDL oxidation (conjugated diene formation, absorbance at 234 nm); assay type: biochemical; conditions: for conjugated diene formation in the LDL solution: for more than 2 hours
Experimental: MPO-mediated oxidation of LDL. Reaction mixtures contained LDL (0.15 mg/ml), NaNO2 (100 µM), H2O2 (300 µM), MPO (20 nM) and various concentrations of KYC in a potassium phosphate buffer (100 mM, pH 7.4) containing DTPA (100 µM). LDL oxidation was monitored at 234 nm at room temperature on a HP UV/VIS spectrometer. Absorbance traces represent the average of duplicate experiments.
MPO-mediated LDL Oxidation. Reaction mixtures contained LDL (0.15 mg/mL), NaNO2 (100 µM), H2O2 (100 µM), MPO (20 nM) and increasing concentrations of KYC in a phosphate buffer (100 mM, pH 7.4) containing DTPA (100 µM). Rates of LDL oxidation were monitored at room temperature at 234 nm, the wavelength maximum for conjugated dienes.
MPO-mediated LDL Conjugated Diene Formation: Reaction mixtures contained LDL (0.15 mg/mL), NaNO2 (100 µM), H2O2 (100 µM), MPO (20 nM) and increasing concentrations of KYC or equimolar concentrations of various compounds in a phosphate buffer (100 mM, pH 7.4) containing DTPA (100 µM). Rates of LDL conjugated diene formation were determined by following changes in absorbance at 234 nm, the wavelength maximum for conjugated dienes, on a UV-Vis spectrophotometer (Agilent Model 8453) at room temperature.

NADPH oxidase (NOX) = test: PMA-stimulated HL-60 cell superoxide formation (SOD-inhibitable cytochrome C reduction); assay type: cell-based, human; conditions: cytochrome C assay
Experimental: PMA-induced Superoxide Anion Formation. HL-60 cells were cultured in RPMI 1640 medium containing 10 % FCS (passage 20-50). HL-60 cells were harvested by centrifugation (1000 rpm, 10 min), washed 2X with phosphate buffer (10 mM, pH 7.4) with NaCl (138 mM), KCl (2.67 mM), CaCl2 (0.901 mM), MgCl2 (0.493 mM) and glucose (1mg/ml) to remove culture medium. The HL-60 cells (6 x10^6/0.5ml) were re-suspended in DPBS. After stimulation with PMA (10 µM), the HL-60 cells were incubated with cytochrome C (40 µM) with or without superoxide dismutase at 37°C for 30 min. The reaction was stopped by centrifugation. Cytochrome C reduction was measured at 550 nm on a UV-Vis spectrophotometer (Agilent, Model 8453).
PMA-stimulated HL-60 cell O2^•- Formation: HL-60 cells were harvested by centrifugation (1000 rpm, 10 min), washed twice with DPBS with glucose to remove culture medium. The HL-60 cells (1.2 x10^7/ml) were re-suspended in DPBS with glucose. After stimulation with PMA (10 µM), the HL-60 cells were incubated with cytochrome C (40 µM) with or without superoxide dismutase (500 units/mL) at 37 °C for 10 min and then the HL-60 cells were removed by centrifugation. Cytochrome C reduction in supernatants was measured at 550 nm using a UV-Vis spectrophotometer (Agilent, Model 8453).

MPO [2] = test: MPO-mediated LDL Trp oxidation (Trp intrinsic fluorescence); assay type: biochemical; conditions: MPO/H2O2/NO2- system, 30 min, room temperature
Experimental: MPO-mediated LDL Trp Oxidation: Reaction mixtures containing LDL (0.15 mg/mL), NaNO2 (100 µM), H2O2 (100 µM), MPO (20 nM) and increasing concentrations of KYC in a phosphate buffer (100 mM, pH 7.4) containing DTPA (100 µM) were incubated at room temperature for 30 min. Reactions were stopped by addition of catalase (2,000 units/mL) and the oxidation of Trp in LDL was determined by measuring changes in the intrinsic fluorescence of Trp (Ex 294nm/Em 345 nm) using a LC-50 fluorometer (Perkin Elmer, Waltham MA).

[3] = system: facialis arteries from non-treated SCD mice; test: Vasodilatation of facialis arteries from untreated SCD mice, treated ex vivo in the vessel bath; conditions: 1.5 µg/ml added to vessel bath, 20 min
Experimental: For vessels treated with KYC (ex-vivo): Using untreated SCD mice, the vessels were isolated/ cannulated the same as for the mice treated with KYC in vivo. After the control dose-response curve using acetylcholine (ACh, 10^-7 - 10^-4 M) and subsequent washing, the vessels were incubated with KYC 1.5 µg/ml for 20 minutes, pre-constricted, and exposed to acetylcholine (ACh, 10^-7 - 10^-4 M). Vasodilation to papaverine (2.0X10^-4 M) was determined after all treatments to ensure smooth muscle viability. Vasodilation was calculated as a percent of maximal vessel diameter change.

CC(=O)N[C@@H](CCCCN)C(=O)N[C@@H](Cc1ccc(O)cc1)C(=O)N[C@@H](CS)C(N)=O [KYC, N-acetyl Lysyltyrosylcysteine amide] (Ac-Lys-Tyr-Cys-NH2)
lag time of conjugated diene formation (MPO [1]; 4 µM, MPO/H2O2/nitrite, H2O2 300 µM, lag time without peptide 25 min): 90 min
reduction of the rate of LDL oxidation (MPO [1]; 4 µM, at the end of the 2 hour incubation, on the basis of absorbance values): ~80%
conjugated diene formation in the LDL solution (MPO [1]; 20 µM, MPO/H2O2/nitrite, H2O2 300 µM): totally suppresses
MPO/H2O2/nitrite-mediated LDL oxidation (MPO [1]; 25 µM, H2O2 100 µM, NaNO2 100 µM, MPO 20 nM): completely suppressed
conjugated diene formation in the LDL solution (MPO [1]; 100 µM, MPO/H2O2/nitrite, H2O2 300 µM): totally suppresses
O2•- production in PMA-stimulated HL-60 cells (NADPH oxidase (NOX)): neither KYC nor KYC disulfide have any significant effect; also recorded: Neither KYC nor KYC disulfide had any significant effect
MPO-dependent oxidation of Trp residues in LDL (MPO [2]): protected the Trp residues in LDL against MPO-dependent oxidation
vasodilatation in response to ACh [3]: did not increase vasodilatation
